{
  "source": "patent US9801901B2",
  "about": "“Alginate oligomers for use in overcoming multidrug resistance in bacteria” (priority 2009, dated 2017)",
  "key": {"[1]": {"system": "PA01 Pseudomonas aeruginosa ATCC 15692", "assay": "MIC assay, two-fold antibiotic dilutions in CAMHB with alginate oligomer, no visible growth", "type": "cell-based"}, "[2]": {"system": "Pseudomonas aeruginosa ATCC 39324, mucoid type strain (R79)", "assay": "MIC assay, CAMHB with alginate oligomer, no visible growth", "type": "cell-based"}, "[3]": {"system": "Pseudomonas aeruginosa CFA 24-1, clinical mucoid strain (R80)", "assay": "MIC assay, CAMHB with alginate oligomer, no visible growth", "type": "cell-based"}, "[4]": {"system": "Pseudomonas aeruginosa MDR R22 from China (V1)", "assay": "MIC assay, CAMHB with alginate oligomer, no visible growth", "type": "cell-based", "settings": "Pseudomonas aeruginosa, Table 1, V1 MDR R22 PA", "description": "(§1) The study described in Example 1 was repeated with the following strains of bacteria and antibiotics as detailed in Tables 4, 5 and 6."}, "[5]": {"system": "Pseudomonas aeruginosa MDR 301 from Poland (V2)", "assay": "MIC assay, CAMHB with alginate oligomer, no visible growth", "type": "cell-based", "settings": "Pseudomonas aeruginosa, Table 1, V2 MDR 301 PA"}, "[6]": {"system": "Klebsiella pneumoniae KP05 506 from India (V3)", "assay": "MIC assay, CAMHB with alginate oligomer, no visible growth", "type": "cell-based", "settings": "for MIC: Klebsiella pneumoniae, Table 1, V3 KP05 506"}, "[7]": {"system": "Acinetobacter baumannii MDR ACB from Libya (V4)", "assay": "MIC assay, CAMHB with alginate oligomer, no visible growth", "type": "cell-based", "description": "as §1\nThe study described in Example 1 was repeated with the following strains of Acinetobacter baumannii, antibiotics and M-block alginate oligomer in place of OligoG CF-5/20 as detailed in Table 7. The M-block oligomer is 100% M with a DPn of 15 to 18,"}, "[8]": {"system": "V9 (Egypt) Acinetobacter baumannii", "assay": "MIC assay, CAMHB with alginate oligomer, no visible growth", "type": "cell-based"}, "[9]": {"system": "V10 (Egypt) Acinetobacter lwoffii", "assay": "MIC assay, CAMHB with alginate oligomer, no visible growth", "type": "cell-based"}, "V11 5702 (Wales) E. coli": {"system": "V11 5702 (Wales) E. coli", "assay": "MIC assay, CAMHB with alginate oligomer, no visible growth", "type": "cell-based"}, "[10]": {"system": "V12 5725 (Wales) Klebsiella pneumoniae", "assay": "MIC assay, CAMHB with alginate oligomer, no visible growth", "type": "cell-based"}, "V22 6056 Acinetobacter": {"system": "V22 6056 Acinetobacter", "assay": "MIC assay, CAMHB with alginate oligomer, no visible growth", "type": "cell-based, Acinetobacter lwoffii"}, "[11]": {"system": "V23 1322 Burkholderia cepacia", "assay": "MIC assay, CAMHB with alginate oligomer, no visible growth", "type": "cell-based", "settings": "Table 6, V23"}, "MDR Pseudomonas strains": {"system": "MDR Pseudomonas strains", "assay": "MIC assay of Example 1, summary over the MDR Pseudomonas strains", "type": "cell-based, Pseudomonas aeruginosa"}, "[12]": {"system": "MDR strains of Pseudomonas aeruginosa, Klebsiella pneumoniae, Burkholderia cepacia, Acinetobacter lwoffii, Acinetobacter baumannii and E. coli", "assay": "MIC assay of Example 2, summary over the strains of Tables 4, 5 and 6", "type": "cell-based", "settings": "Example 2, Tables 4, 5 and 6"}},
  "note": "Marks after values point to notes of the source that are not given here.",
  "data": [
    {"smiles": "CC1(C)C[C@@H]1C(=O)N/C(=C\\CCCCSC[C@H](N)C(=O)O)C(=O)O", "note": "[Primaxin, Imipenem/cilastatin]", "values": [
      {"measurement": "MIC", "setting": "[1]; Pseudomonas aeruginosa, ATCC15692", "result": "< 1", "unit": "µg/mL"},
      {"measurement": "MIC", "setting": "[1]; Table 1, PA01, OligoCF-5/20 +2% G", "result": "<1", "unit": "µg/mL"},
      {"measurement": "MIC", "setting": "[1]; Table 1, PA01, OligoCF-5/20 +6% G", "result": "<1", "unit": "µg/mL"},
      {"measurement": "MIC", "setting": "[1]; Table 1, PA01, OligoCF-5/20 +10% G", "result": "<1", "unit": "µg/mL"},
      {"measurement": "MIC", "setting": "[2]; Pseudomonas aeruginosa, ATCC39324", "result": "< 1", "unit": "µg/mL"},
      {"measurement": "MIC", "setting": "[2]; Table 1, R79, OligoCF-5/20 +2% G", "result": "<1", "unit": "µg/mL"},
      {"measurement": "MIC", "setting": "[2]; Table 1, R79, OligoCF-5/20 +6% G", "result": "<1", "unit": "µg/mL"},
      {"measurement": "MIC", "setting": "[2]; Table 1, R79, OligoCF-5/20 +10% G", "result": "<1", "unit": "µg/mL"},
      {"measurement": "MIC", "setting": "[3]; Pseudomonas aeruginosa", "result": "< 1", "unit": "µg/mL"},
      {"measurement": "MIC", "setting": "[3]; Table 1, R80, OligoCF-5/20 +2% G", "result": "<1", "unit": "µg/mL"},
      {"measurement": "MIC", "setting": "[3]; Table 1, R80, OligoCF-5/20 +6% G", "result": "<1", "unit": "µg/mL"},
      {"measurement": "MIC", "setting": "[3]; Table 1, R80, OligoCF-5/20 +10% G", "result": "<1", "unit": "µg/mL"},
      {"measurement": "MIC", "setting": "[4]; OligoCF-5/20 0G", "result": 128, "unit": "µg/mL"},
      {"measurement": "MIC", "setting": "[4]; OligoCF-5/20 +2% G", "result": 128, "unit": "µg/mL"},
      {"measurement": "MIC", "setting": "[4]; OligoCF-5/20 +6% G", "result": 64, "unit": "µg/mL"},
      {"measurement": "MIC", "setting": "[4]; OligoCF-5/20 +10% G", "result": 32, "unit": "µg/mL"},
      {"measurement": "MIC", "setting": "[5]; OligoCF-5/20 0G", "result": 512, "unit": "µg/mL"},
      {"measurement": "MIC", "setting": "[5]; OligoCF-5/20 +2% G", "result": 256, "unit": "µg/mL"},
      {"measurement": "MIC", "setting": "[5]; OligoCF-5/20 +6% G", "result": 256, "unit": "µg/mL"},
      {"measurement": "MIC", "setting": "[5]; OligoCF-5/20 +10% G", "result": 128, "unit": "µg/mL"},
      {"measurement": "effectiveness in conjunction with alginate oligomers", "setting": "[6]; Example 1, KP05 506", "result": "inconclusive"},
      {"measurement": "MIC", "setting": "[6]; OligoCF-5/20 0G", "result": 32, "unit": "µg/mL"},
      {"measurement": "MIC", "setting": "[6]; OligoCF-5/20 +2% G", "result": 64, "unit": "µg/mL"},
      {"measurement": "MIC", "setting": "[6]; OligoCF-5/20 +6% G", "result": 64, "unit": "µg/mL"},
      {"measurement": "MIC", "setting": "[6]; OligoCF-5/20 +10% G", "result": 64, "unit": "µg/mL"},
      {"measurement": "MIC", "setting": "[7]; Acinetobacter baumannii", "result": "< 1", "unit": "µg/mL"},
      {"measurement": "MIC", "setting": "[7]; Table 1, V4 ACB (Libya), OligoCF-5/20 +2% G", "result": "<1", "unit": "µg/mL"},
      {"measurement": "MIC", "setting": "[7]; Table 1, V4 ACB (Libya), OligoCF-5/20 +6% G", "result": "<1", "unit": "µg/mL"},
      {"measurement": "MIC", "setting": "[7]; Table 1, V4 ACB (Libya), OligoCF-5/20 +10% G", "result": "<1", "unit": "µg/mL"},
      {"measurement": "MIC", "setting": "[8]; Acinetobacter baumannii", "result": 1, "unit": "µg/mL"},
      {"measurement": "MIC", "setting": "[8]; Table 5, V9 MDR Acin. baum, OligoCF-5/20 +2% G", "result": 2, "unit": "µg/mL"},
      {"measurement": "MIC", "setting": "[8]; Table 5, V9 MDR Acin. baum, OligoCF-5/20 +6% G", "result": "<0.5^† μg/ml"},
      {"measurement": "MIC", "setting": "[8]; Table 5, V9 MDR Acin. baum, OligoCF-5/20 +10% G", "result": "<0.5^† μg/ml"},
      {"measurement": "MIC", "setting": "[9]; Acinetobacter lwoffii", "result": "< 0.5", "unit": "µg/mL"},
      {"measurement": "MIC", "setting": "[9]; Table 5, V10 MDR Acin. lwoff, OligoCF-5/20 +2% G", "result": "<0.5", "unit": "µg/mL"},
      {"measurement": "MIC", "setting": "[9]; Table 5, V10 MDR Acin. lwoff, OligoCF-5/20 +6% G", "result": "<0.5", "unit": "µg/mL"},
      {"measurement": "MIC", "setting": "[9]; Table 5, V10 MDR Acin. lwoff, OligoCF-5/20 +10% G", "result": "<0.5", "unit": "µg/mL"},
      {"measurement": "MIC", "setting": "V11 5702 (Wales) E. coli; Escherichia coli", "result": "< 0.5", "unit": "µg/mL"},
      {"measurement": "MIC", "setting": "V11 5702 (Wales) E. coli; Table 5, V11 MDR E.coli, OligoCF-5/20 +2% G", "result": "<0.5", "unit": "µg/mL"},
      {"measurement": "MIC", "setting": "V11 5702 (Wales) E. coli; Table 5, V11 MDR E.coli, OligoCF-5/20 +6% G", "result": "<0.5", "unit": "µg/mL"},
      {"measurement": "MIC", "setting": "V11 5702 (Wales) E. coli; Table 5, V11 MDR E.coli, OligoCF-5/20 +10% G", "result": "<0.5", "unit": "µg/mL"},
      {"measurement": "MIC", "setting": "[10]; Klebsiella pneumoniae", "result": "< 0.5", "unit": "µg/mL"},
      {"measurement": "MIC", "setting": "[10]; Table 5, V12 MDR Kleb pneu, OligoCF-5/20 +2% G", "result": "<0.5", "unit": "µg/mL"},
      {"measurement": "MIC", "setting": "[10]; Table 5, V12 MDR Kleb pneu, OligoCF-5/20 +6% G", "result": "<0.5", "unit": "µg/mL"},
      {"measurement": "MIC", "setting": "[10]; Table 5, V12 MDR Kleb pneu, OligoCF-5/20 +10% G", "result": "<0.5", "unit": "µg/mL"},
      {"measurement": "MIC", "setting": "V22 6056 Acinetobacter; Acinetobacter", "result": 8, "unit": "µg/mL"},
      {"measurement": "MIC", "setting": "V22 6056 Acinetobacter; Table 5, V22 MDR Acin. lwoff, OligoCF-5/20 +2% G", "result": 8, "unit": "µg/mL"},
      {"measurement": "MIC", "setting": "V22 6056 Acinetobacter; Table 5, V22 MDR Acin. lwoff, OligoCF-5/20 +6% G", "result": 8, "unit": "µg/mL"},
      {"measurement": "MIC", "setting": "V22 6056 Acinetobacter; Table 5, V22 MDR Acin. lwoff, OligoCF-5/20 +10% G", "result": "4^† μg/ml"},
      {"measurement": "MIC", "setting": "[11]; Burkholderia cepacia, Experiment 1 (18-03-10), OligoCF-5/20 0G", "result": 128, "unit": "µg/mL"},
      {"measurement": "MIC", "setting": "[11]; Burkholderia cepacia, Experiment 2 (18-03-10), OligoCF-5/20 0G", "result": 256, "unit": "µg/mL"},
      {"measurement": "MIC", "setting": "[11]; Burkholderia cepacia, Experiment 3 (19-03-10), OligoCF-5/20 0G", "result": 256, "unit": "µg/mL"},
      {"measurement": "MIC", "setting": "[11]; Experiment 1 (18-03-10), OligoCF-5/20 +2% G", "result": 128, "unit": "µg/mL"},
      {"measurement": "MIC", "setting": "[11]; Experiment 1 (18-03-10), OligoCF-5/20 +6% G", "result": "64^† μg/ml"},
      {"measurement": "MIC", "setting": "[11]; Experiment 1 (18-03-10), OligoCF-5/20 +10% G", "result": "32^† μg/ml"},
      {"measurement": "MIC", "setting": "[11]; Experiment 2 (18-03-10), OligoCF-5/20 +2% G", "result": "128^† μg/ml"},
      {"measurement": "MIC", "setting": "[11]; Experiment 2 (18-03-10), OligoCF-5/20 +6% G", "result": "128^† μg/ml"},
      {"measurement": "MIC", "setting": "[11]; Experiment 2 (18-03-10), OligoCF-5/20 +10% G", "result": "64^† μg/ml"},
      {"measurement": "MIC", "setting": "[11]; Experiment 3 (19-03-10), OligoCF-5/20 +2% G", "result": 256, "unit": "µg/mL"},
      {"measurement": "MIC", "setting": "[11]; Experiment 3 (19-03-10), OligoCF-5/20 +6% G", "result": 256, "unit": "µg/mL"},
      {"measurement": "MIC", "setting": "[11]; Experiment 3 (19-03-10), OligoCF-5/20 +10% G", "result": "128^† μg/ml"},
      {"measurement": "effectiveness when used in combination with the alginate oligomers", "setting": "MDR Pseudomonas strains", "result": "more effective"},
      {"measurement": "change of MIC with increasing amounts of OligoG CF-5/20", "setting": "[12]", "result": "decreasing MICs"}
    ]}
  ]
}
